Source: ChEMBL document CHEMBL1142376, “Novel CADD-based peptidyl vinyl ester derivatives as potential proteasome inhibitors” (Bioorg Med Chem Lett, 2008)

Legend:
[1] = Inhibition of chymotrypsin-like activity of 20S proteasome
[2] = Inhibition of post acidic-like activity of 20S proteasome
[3] = Inhibition of trypsin-like activity of 20S proteasome
HL-60 = assay: Antiproliferative activity against human HL60 cells at 10 umole; assay type: functional
BGC-823 = assay: Antiproliferative activity against human BGC823 cells at 10 umole; assay type: functional
Bel-7402 = assay: Antiproliferative activity against human Bel7402 cells at 10 umole; assay type: functional
KB = assay: Antiproliferative activity against human KB cells at 10 umole; assay type: functional

Row | Compound | IC50 [1] [µmol] | IC50 [2] [µmol] | IC50 [3] [µmol] | Activity (HL-60) [%] | Activity (BGC-823) [%] | Activity (Bel-7402) [%] | Activity (KB) [%]
1 | CCOC(=O)/C=C/[C@H](Cc1ccccc1)NC(=O)[C@@H](NC(=O)OC(C)(C)C)[C@@H](C)CC | > 100 | > 100 | > 100 | 29.56 | 24.14 | -7.74 | -0.18
2 | CCOC(=O)/C=C/[C@H](Cc1ccc(O)cc1)NC(=O)[C@H](Cc1ccccc1)NC(=O)[C@H](CC(C)C)NC(=O)OC(C)(C)C | > 100 | > 100 | > 100 | 7.87 | 13.74 | -4.24 | -5.34
3 | CCOC(=O)/C=C/[C@H](Cc1ccc(O)cc1)NC(=O)[C@H](CC(C)C)NC(=O)[C@H](CC(C)C)NC(=O)OC(C)(C)C | > 100 | > 100 | > 100 | -2.64 | 0.02 | -6.95 | -5.99
4 | CCOC(=O)/C=C/[C@H](C[C@@H]1CCNC1=O)NC(=O)[C@H](Cc1ccccc1)NC(=O)[C@H](CC(C)C)NC(=O)OC(C)(C)C | > 100 | > 100 | > 100 | -7.61 | 13.89 | -1.63 | -1.56
5 | CCOC(=O)/C=C/[C@H](Cc1ccc(O)cc1)NC(=O)[C@@H](NC(=O)OC(C)(C)C)C(C)C | > 100 | > 100 | > 100 | 22.1 | 18.44 | 4.6 | 1.76
6 | CCOC(=O)/C=C/[C@H](C[C@@H]1CCNC1=O)NC(=O)[C@H](Cc1ccc(O)cc1)NC(=O)[C@H](CC(C)C)NC(=O)[C@H](CC(C)C)NC(=O)OC(C)(C)C | 63.41 | > 100 | > 100 | 17.73 | 28.9 | 7.64 | 6.64
7 | CCOC(=O)/C=C/[C@H](Cc1ccccc1)NC(=O)[C@@H](NC(=O)OC(C)(C)C)C(C)C | > 100 | > 100 | > 100 | 27.13 | 21.27 | -3.57 | -1.97
8 | CCOC(=O)/C=C/[C@H](Cc1ccc(O)cc1)NC(=O)[C@@H](NC(=O)[C@@H](NC(=O)OC(C)(C)C)[C@@H](C)CC)[C@@H](C)O | > 100 | > 100 | > 100 | 26.5 | 14.69 | 3.1 | 3.76
9 | CCOC(=O)/C=C/[C@H](C[C@@H]1CCNC1=O)NC(=O)[C@H](CC(C)C)NC(=O)[C@H](CO)NC(=O)[C@@H](NC(=O)OC(C)(C)C)C(C)C | > 100 | > 100 | > 100 | -47.14 | 20.55 | -3.55 | 9.15
10 | CCOC(=O)/C=C/[C@H](Cc1ccccc1)NC(=O)[C@H](CO)NC(=O)[C@@H](NC(=O)OC(C)(C)C)C(C)C | > 100 | > 100 | > 100 | 0.36 | 0.04 | -11.09 | -6.79
11 | CCOC(=O)/C=C/[C@H](Cc1ccccc1)NC(=O)[C@H](CO)NC(=O)OC(C)(C)C | > 100 | > 100 | > 100 | 19.98 | 19.11 | -3.14 | -11.24
12 | CCOC(=O)/C=C/[C@H](Cc1ccccc1)NC(=O)[C@H](CO)NC(=O)[C@H](Cc1ccccc1)NC(=O)OC(C)(C)C | > 100 | > 100 | > 100 | 21.08 | 8.28 | -8.04 | 5.23
13 | CC(C)(C)OC(=O)N[C@@H](Cc1ccccc1)C(=O)N[C@@H](CO)C(=O)N[C@H](/C=C/C(=O)O)C[C@@H]1CCNC1=O | > 100 | > 100 | > 100 | 31.04 | 16.9 | 1.66 | -15.6
14 | CCOC(=O)/C=C/[C@H](Cc1ccccc1)NC(=O)[C@H](Cc1ccccc1)NC(=O)[C@H](CC(C)C)NC(=O)OC(C)(C)C | > 100 | > 100 | > 100 | 8.65 | 13.32 | -4.56 | 4.33
15 | CCOC(=O)/C=C/[C@H](C[C@@H]1CCNC1=O)NC(=O)[C@@H](NC(=O)[C@@H](NC(=O)OC(C)(C)C)[C@@H](C)CC)[C@@H](C)O | > 100 | > 100 | > 100 | 0.71 | 0.69 | -16.67 | -10.29
16 | CCOC(=O)/C=C/[C@H](Cc1ccc(O)cc1)NC(=O)[C@H](CO)NC(=O)[C@@H](NC(=O)OC(C)(C)C)C(C)C | > 100 | > 100 | > 100 | 26.73 | 22.59 | 3.39 | 7.44
17 | CC(C)(C)OC(=O)N[C@@H](Cc1ccccc1)C(=O)N[C@@H](CO)C(=O)N[C@H](/C=C/C(=O)O)Cc1ccc(O)cc1 | > 100 | > 100 | > 100 | 13.37 | 10.28 | 3.39 | 7.44
18 | CCOC(=O)/C=C/[C@H](Cc1ccc(O)cc1)NC(=O)[C@H](Cc1ccccc1)NC(=O)OC(C)(C)C | > 100 | > 100 | > 100 | 23.66 | 33.88 | 12.68 | -0.7
19 | CCOC(=O)/C=C/[C@H](C[C@@H]1CCNC1=O)NC(=O)[C@H](CO)NC(=O)[C@@H](NC(=O)OC(C)(C)C)C(C)C | > 100 | > 100 | > 100 | -1.94 | 5.52 | -4.98 | -3.45
20 | CC(C)(C)OC(=O)N[C@@H](CO)C(=O)N[C@H](/C=C/C(=O)O)Cc1ccc(O)cc1 | > 100 | > 100 | > 100 | 19.26 | 22.56 | -5.91 | -15.49
21 | CCOC(=O)/C=C/[C@H](Cc1ccccc1)NC(=O)[C@@H](NC(=O)[C@@H](NC(=O)OC(C)(C)C)[C@@H](C)CC)[C@@H](C)O | > 100 | > 100 | > 100 | 8.17 | 13.62 | -1.79 | 10.75
22 | CCOC(=O)/C=C/[C@H](Cc1ccc(O)cc1)NC(=O)[C@@H](NC(=O)OC(C)(C)C)[C@@H](C)CC | > 100 | > 100 | > 100 | 21.66 | 23.06 | 3.32 | 5.27
23 | CCOC(=O)/C=C/[C@H](C[C@@H]1CCNC1=O)NC(=O)[C@H](CC(C)C)NC(=O)[C@H](CO)NC(=O)[C@H](Cc1ccccc1)NC(=O)OC(C)(C)C | > 100 | > 100 | > 100 | 4.94 | 14.25 | -0.39 | -4.17
24 | CCOC(=O)/C=C/[C@H](C[C@@H]1CCNC1=O)NC(=O)[C@H](CC(C)C)NC(=O)[C@H](CC(C)C)NC(=O)[C@H](CC(C)C)NC(=O)OC(C)(C)C | 48.31 | > 100 | > 100 | 17.17 | 16.14 | 12.02 | 15.73
25 | CCOC(=O)/C=C/[C@H](C[C@@H]1CCNC1=O)NC(=O)[C@H](CC(C)C)NC(=O)[C@H](CC(C)C)NC(=O)OC(C)(C)C | > 100 | > 100 | > 100 | 36.97 | 21.44 | -2.4 | -14.03
26 | CCOC(=O)/C=C/[C@H](Cc1ccc(O)cc1)NC(=O)[C@H](CC(C)C)NC(=O)OC(C)(C)C | > 100 | > 100 | > 100 | 5.87 | 17.01 | -10.27 | 1.72
27 | CCOC(=O)/C=C/[C@H](Cc1ccccc1)NC(=O)[C@H](CC(C)C)NC(=O)[C@H](CC(C)C)NC(=O)OC(C)(C)C | > 100 | > 100 | > 100 | 6.13 | 9.95 | -12.87 | -1.67
28 | CCOC(=O)/C=C/[C@H](C[C@@H]1CCNC1=O)NC(=O)[C@H](CC(C)C)NC(=O)[C@@H](NC(=O)[C@@H](NC(=O)OC(C)(C)C)[C@@H](C)CC)[C@@H](C)O | > 100 | > 100 | > 100 | -2.32 | 19.98 | -0.31 | 4.3
